Assay type in all cases: in vivo
One test relates to Phytophthora infestans. Particulars: tomatoes, preventive spray, 1 ppm a.i., evaluated 3 days after inoculation.
The subject of a further test is Alternaria solani. Put plainly: Alternaria test (tomatoes)/preventive. The settings on record: preventive spray, evaluated 3 days after inoculation.
A further test relates to Venturia inaequalis. Put plainly: Venturia test (apples)/preventive. Particulars: preventive spray, evaluated 10 days after inoculation.

On to `CO/C=C(/C(=O)OC)c1ccccc1Oc1cc(Oc2ccccc2C#N)ncn1` [F107, azoxystrobin], for which the entries for the “Efficacy in % found” value with Phytophthora infestans and in the test on Alternaria solani (1 ppm a.i.) were 61% and 39%, respectively.
For the molecule `CSC1=N[C@@](C)(c2ccccc2)C(=O)N1Nc1ccccc1` [F114, fenamidone], the “Efficacy in % found” value in the test with Phytophthora infestans came to 37%.
As for `COC(=O)N(OC)c1ccccc1COc1ccn(-c2ccc(Cl)cc2)n1` [F121, pyraclostrobin], the results for the “Efficacy in % found” value in the test on Venturia inaequalis (1 ppm a.i.) and in the test with Alternaria solani (0.5 ppm a.i.) were 65% and 30%, respectively.
Regarding `CON=C(C(=O)OC)c1ccccc1CON=C(C)c1cccc(C(F)(F)F)c1` [F126, trifloxystrobin], the results for the “Efficacy in % found” value with Venturia inaequalis (0.25 ppm a.i.) and in the test with Alternaria solani (1 ppm a.i.) were 60% and 38%, respectively.

These data come from US20150289514A1 (priority 2012, published 2015).
